Measurements as given in patent US8153167B2, “Herbal medicine for osteoporosis and related conditions” (Medipearl Pte Ltd., priority 2007, dated 2012).
Like-named read-outs stand apart in the source and are kept apart here.

Experiments:
UMR 106 cell line = details: UMR 106 cells in vitro; Wang et al. 2001, Meng et al. 2004; cited from earlier work
osteoblast-like cells = details: Kim et al. (2003), Ha (2003), cited from earlier work
[1] = system: human osteoblast-like cell lines, MG-63 and hFOB; details: Kuo et al. (2005); cited from earlier work
ovariectomized rats = assay: ovariectomized rat osteoporosis animal model; format: in vivo; details: femur, three months, dose not given
Protocol: Materials have been tested in ovariectomized rats, a popular and generally accepted osteoporosis animal model.
After orally dosing continuously for three months at 0.12, 0.25, 0.5 and 0.8 g/kg/day, twice a day, the bone mass index, wet weight and dry weight of femur, bone mineral densities of femur and lumbar were measured and calculated. Body weights of rats were measured weekly.
The effects of the purified composition on the body weight of the rats in the groups described above were determined.
We measured the body weight of each experimental animal group weekly.

Row | SMILES | osteoblastic proliferation activity (UMR 106 cell line) | proliferation of osteoblast-like cells (osteoblast-like cells) | also measured
1 | CC(C)=CCOc1c2occc2cc2ccc(=O)oc12 [imperatorin] | less effective than osthole |  | 
2 | COc1c2ccoc2cc2oc(=O)ccc12 [Bergapten, bergapten] | less effective than osthole |  | 
3 | OCC1=C[C@@H](O)[C@@H]2C=CO[C@@H](O[C@@H]3O[C@H](CO)[C@@H](O)[C@H](O)[C@H]3O)[C@H]12 [aucubin] |  | increased the proliferation of osteoblast-like cells | 
4 | COc1ccc2ccc(=O)oc2c1CC=C(C)C [Osthole, osthole] | significantly promoted the cells' activity |  | differentiation of osteoblast-like cells [1]: significantly induced the differentiation
5 | O=C(O)C1=CO[C@@H](O[C@@H]2O[C@H](CO)[C@@H](O)[C@H](O)[C@H]2O)[C@@H]2C(CO)=CC[C@H]12 [GPA, geniposidic acid] |  | increases the proliferation of osteoblast-like cells | proliferation of osteoblast-like cells (osteoblast-like cells; listed as geniposidic acid): increased the proliferation of osteoblast-like cells
6 | NCCCC(O)(P(=O)(O)O)P(=O)(O)O [Fosamax ®] |  |  | Wet Weight (mg/cm) ( x ± s) (ovariectomized rats): 205.8757 ± 18.32 mg/cm
7 | COC(=O)C1=CO[C@@H](O[C@@H]2O[C@H](CO)[C@@H](O)[C@H](O)[C@H]2O)[C@@H]2C(CO)=CC[C@H]12 [geniposide] |  | increased the proliferation of osteoblast-like cells | 
